Results published in patent publication US12351572B2, “Substituted 1,2,4-triazoles as TYK2 inhibitors” (Alumis Inc., priority 2018, dated 2025).

Key:
Assay type in all cases: in vivo
[1] = Pharmacokinetics in Beagle dogs; conditions: dog, plasma, iv, C0, I.V. (1 mg/kg), read-out: C0 or Cmax
Experimental: (§1) The pharmacokinetics of test compounds were evaluated in male C57BL/6 mice, Sprague Dawley rats, Beagle dogs, and cynomolgus monkeys when administered via oral gavage and IV injection. The animals were fasted overnight before administration. Plasma samples were collected predose and at 0.5, 1, 3, 6, 9, 12, and 24 hours postdose. The samples were analyzed by LC/MS/MS and the concentration of test compound at each timepoint was determined by linear regression. Pharmacokinetic parameters were calculated from the plasma concentrations using Pheonix WinNonlin.

[2] = Pharmacokinetics in Sprague Dawley rats; conditions: rat, plasma, iv, C0, I.V. (1 mg/kg), read-out: C0 or Cmax
Experimental: as §1

[3] = Pharmacokinetics in cynomolgus monkeys; conditions: cynomolgus monkey, plasma, iv, C0, I.V. (1 mg/kg), read-out: C0 or Cmax
Experimental: as §1

[4] = Pharmacokinetics in C57BL/6 mice; conditions: male, mouse, plasma, iv, C0, I.V. (2 mg/kg), read-out: C0 or Cmax
Experimental: as §1

- Cmax [1]: 559 ± 34 ng/mL
- Cmax [2]: 1740 ± 276 ng/mL
- Cmax [3]: 1420 ± 264 ng/mL
- Cmax [4]: 3220 ng/mL
Compound: [2H]C([2H])([2H])NC(=O)c1nnc(NC(=O)C2CC2)cc1Nc1cccc(-c2ncn(C)n2)c1OC [control, BMS-986165]
